Columns and labels:
Assay type in all cases: in vivo
[1] = test system: Alopecurus myosuroides (ALOMY); assay: Pre-emergence biological efficacy, glasshouse pot test; conditions: 312 h, pre-emergence, 1,000 g/ha, evaluated after 13 days (100=total damage; 0=no damage), read-out: Percentage damage ALOMY
Method in brief: (§1)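 Seeds sown in standard soil in pots, held one day in glasshouse (24/16 °C day/night, 14 h light, 65% humidity), then sprayed with aqueous solution from acetone/water (50:50) formulation with 0.5% Tween 20 at 1000 or 250 g/ha. Damage scored after 13 days (0 = none, 100 = total).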

[2] = test system: Amaranthus retoflexus (AMARE); assay: as above; conditions: Amaranthus retroflexus, 312 h; pre-emergence, 1,000 g/ha, evaluated after 13 days (100=total damage; 0=no damage); read-out: Percentage damage AMARE
Method in brief: as §1

[3] = test system: Echinochloa crus-galli (ECHCG); assay: as above; conditions: 312 h, pre-emergence, 1,000 g/ha, evaluated after 13 days (100=total damage; 0=no damage), read-out: Percentage damage ECHCG
Method in brief: as §1

[4] = test system: Ipomea hederaceae (IPOHE); assay: as above; conditions: Ipomoea hederacea, 312 h; pre-emergence, 1,000 g/ha, evaluated after 13 days (100=total damage; 0=no damage); read-out: Percentage damage IPOHE
Method in brief: as §1

Setaria faberi (SETFA) [5] = assay: as above; conditions: 312 h, pre-emergence, 1,000 g/ha, evaluated after 13 days (100=total damage; 0=no damage), read-out: Percentage damage SETFA
Method in brief: as §1

Solanum nigrum (SOLNI) [6] = assay: as above; conditions: 312 h, pre-emergence, 1,000 g/ha, evaluated after 13 days (100=total damage; 0=no damage), read-out: Percentage damage SOLNI
Method in brief: as §1

[7] = test system: Alopecurus myosuroides (ALOMY); assay: Post-emergence biological efficacy, glasshouse pot test; conditions: 312 h, post-emergence, 1,000 g/ha, evaluated after 13 days (100=total damage; 0=no damage), read-out: Percentage damage caused to weed species, ALOMY
Method in brief: (§2)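 Plants were sown in standard soil and grown 8 days in a glasshouse (24/16° C. day/night, 14 hours light, 65% humidity), then sprayed post-emergence at 1000 or 250 g/ha from acetone/water (50:50) with 0.5% Tween 20. Damage was scored visually after 13 days (0 = none, 100 = total).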

[8] = test system: Amaranthus retoflexus (AMARE); assay: as above; conditions: Amaranthus retroflexus, 312 h; post-emergence, 1,000 g/ha, evaluated after 13 days (100=total damage; 0=no damage); read-out: Percentage damage caused to weed species, AMARE
Method in brief: as §2

[9] = test system: Echinochloa crus-galli (ECHCG); assay: as above; conditions: 312 h, post-emergence, 1,000 g/ha, evaluated after 13 days (100=total damage; 0=no damage), read-out: Percentage damage caused to weed species, ECHCG
Method in brief: as §2

[10] = test system: Ipomea hederaceae (IPOHE); assay: as above; conditions: Ipomoea hederacea, 312 h; post-emergence, 1,000 g/ha, evaluated after 13 days (100=total damage; 0=no damage); read-out: Percentage damage caused to weed species, IPOHE
Method in brief: as §2

Setaria faberi (SETFA) [11] = assay: as above; conditions: 312 h, post-emergence, 1,000 g/ha, evaluated after 13 days (100=total damage; 0=no damage), read-out: Percentage damage caused to weed species, SETFA
Method in brief: as §2

Solanum nigrum (SOLNI) [12] = assay: as above; conditions: 312 h, post-emergence, 1,000 g/ha, evaluated after 13 days (100=total damage; 0=no damage), read-out: Percentage damage caused to weed species, SOLNI
Method in brief: as §2

Row | Structure (SMILES) | pest or weed control at 1000 g/ha [1] | pest or weed control at 1000 g/ha [2] | pest or weed control at 1000 g/ha [3] | pest or weed control at 1000 g/ha [4] | pest or weed control at 1000 g/ha (Setaria faberi (SETFA) [5]) | pest or weed control at 1000 g/ha (Solanum nigrum (SOLNI) [6]) | pest or weed control at 1000 g/ha [7] | pest or weed control at 1000 g/ha [8] | pest or weed control at 1000 g/ha [9] | pest or weed control at 1000 g/ha [10] | pest or weed control at 1000 g/ha (Setaria faberi (SETFA) [11]) | pest or weed control at 1000 g/ha (Solanum nigrum (SOLNI) [12])
1 | COC(=O)c1nc(C2CC2)nc(NCc2ccc(N)cc2)c1Cl [Compound 4-86, 4-(4-Aminophenyl-methylamino)-5-chloro-2-cyclopropyl-6-methoxycarbonyl-pyrimidine] | 60% | 100% | 70% | 100% | 80% | 100% | 50% | 100% | 70% | 100% | 90% | 100%
2 | COC(=O)c1nc(C2CC2)nc(NCc2ccc(N(C)C)cc2)c1Cl [Compound 4-87, 5-Chloro-2-cyclopropyl-4-(4-dimethylamino-phenylmethyl-amino)-6-methoxycarbonyl-pyrimidine] | 90% | 100% | 90% | 100% | 90% | 100% | 60% | 100% | 60% | 100% | 100% | 100%
3 | COC(=O)c1nc(C2CC2)nc(NCc2ccccc2N2CCOCC2)c1Cl [Compound 4-88, 5-Chloro-2-cyclopropyl-6-methoxycarbonyl-4-(2-morpholin-4-yl-phenylmethyl-amino)-pyrimidine] | 40% | 70% | 50% | 100% | 20% | 70% | 50% | 100% | 60% | 80% | 60% | 80%
4 | COC(=O)c1nc(C2CC2)nc(NCc2ccccc2[N+](=O)[O-])c1Cl [Compound 4-90, 5-Chloro-2-cyclopropyl-6-methoxycarbonyl-4-(2-nitrophenyl-methylamino)-pyrimidine] | 50% | 100% | 60% | 100% | 80% | 100% | 50% | 100% | 80% | 100% | 100% | 100%
5 | COC(=O)c1nc(C2CC2)nc(NCc2cccc([N+](=O)[O-])c2)c1Cl [Compound 4-91, 5-Chloro-2-cyclopropyl-6-methoxycarbonyl-4-(3-nitrophenyl-methylamino)-pyrimidine] | 10% | 50% | 20% | 60% | 20% | 50% | 50% | 100% | 80% | 100% | 90% | 100%
6 | COC(=O)c1nc(C2CC2)nc(NCc2ccc(S(N)(=O)=O)cc2)c1Cl [Compound 4-93, 4-(4-Aminosulphonyl-phenyl)methylamino-5-chloro-2-cyclopropyl-6-methoxycarbonyl-pyrimidine] | 0% | 30% | 0% | 40% | 0% | 0% | 0% | 30% | 0% | 70% | 0% | 50%

From patent US20110086759A1, “CHEMICAL COMPOUNDS” (SYNGENTA CROP PROTECTION, INC., priority 2007, published 2011)
